We go through 46 substances from US10517889B2, “Modulators of SMAD7 expression” (Ionis Pharmaceuticals, Inc., priority 2017, dated 2019).

Strand notation (5' to 3'): a small letter for the sugar, then the base; units joined by * are phosphorothioate-linked, units joined directly phosphodiester-linked; [ ] holds rarer units or linkages, { } end groups; capitals alone tell only the bases. k = constrained ethyl (cEt); [5mC] = 5-methylcytosine; d = 2'-deoxy (DNA)

The subject of the data set is human SMAD7 mRNA. Briefly: Antisense inhibition of human SMAD7 mRNA expression in Hep3B cells by 3-10-3 cEt gapmers, 10,000 nM, electroporation (Example 2). The data set is classed as cell-based. As to conditions: approximately 24 hours. The method in brief: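 SMAD7 mRNA was measured by real-time PCR (RTS5062) with RiboGreen total-RNA normalization, about 24 h after 10,000 nM gapmer was delivered by electroporation into Hep3B cells at 20,000 per well. Gapmers were 16-mer 3-10-3 cEt, fully phosphorothioate; values are % inhibition versus untreated controls.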

The mark [1] stands for this setting: Hep3B cells, electroporation with 10,000 nM antisense oligonucleotide, primer probe set RTS5062, relative to untreated control cells.
Where [2] appears, read: SMAD7 mRNA, Hep3B cells, electroporation with 10,000 nM antisense oligonucleotide, primer probe set RTS5062, relative to untreated control cells.
The mark [3] stands for this setting: Hep3B cells, electroporation with 10,000 nM antisense oligonucleotide, SMAD7 mRNA by RT-PCR (RTS5062), relative to untreated control cells.
[4] abbreviates: Hep3B cells, electroporation, 10,000 nM antisense oligonucleotide, RTS5062, relative to untreated control cells.
Where [5] appears, read: Hep3B cells, electroporation with 10,000 nM antisense oligonucleotide, RTS5062, percent inhibition of SMAD7 mRNA relative to untreated control cells.
Setting [6] is: SMAD7 mRNA, Hep3B cells, 10,000 nM antisense oligonucleotide, electroporation, primer probe set RTS5062, relative to untreated control cells.
The mark [7] stands for this setting: Hep3B cells, 10,000 nM antisense oligonucleotide, electroporation, RT-PCR primer probe set RTS5062, relative to untreated control cells.

With “798994 (antisense kA*k[5mC]*kA*d[5mC]*dA*d[5mC]*dA*d[5mC]*dT*d[5mC]*d[5mC]*dT*dG*kA*k[5mC]*kA) [compound 798994]”, the “% Inhibition” value under setting [1] was 0%.

Consider “829967 (k[5mC]*k[5mC]*k[5mC]*d[5mC]*d[5mC]*dA*dG*dG*dG*dA*dA*dT*dG*k[5mC]*k[5mC]*k[5mC]; antisense) [compound 829967]”, for which the “% Inhibition” value under setting [2] was 0%.

As for “800022 (kG*kG*kA*dA*dG*dA*dG*d[5mC]*d[5mC]*dT*dT*dG*dG*k[5mC]*k[5mC]*kT; antisense) [compound 800022]”, the “% Inhibition” value under setting [3] was 30%.

Turning to “798806 (kT*kG*kA*dA*dA*dG*d[5mC]*d[5mC]*d[5mC]*d[5mC]*d[5mC]*d[5mC]*dA*kG*kG*kG; antisense) [compound 798806]”, the “% inhibition of SMAD7 mRNA expression” value under setting [4] is on record as 50%.

In the case of “799514 (antisense kT*k[5mC]*kG*dG*dA*dG*dT*dT*dT*d[5mC]*d[5mC]*dT*d[5mC]*kA*k[5mC]*kT) [compound 799514]”, the “% Inhibition” value under setting [5] was 40%.

On to “799745 (antisense kG*kG*k[5mC]*dA*dG*dT*dT*dA*dA*d[5mC]*dA*dT*dT*kT*k[5mC]*kA) [compound 799745]”, for which the “% Inhibition” value under setting [5] was 43%.

“790674 (kT*kG*k[5mC]*dT*dA*d[5mC]*d[5mC]*dT*dA*dA*dT*dG*dT*k[5mC]*kA*kA; antisense) [compound 790674]”: under setting [6], the “% Inhibition” value turned out to be 40%.

On to “801128 (antisense kA*kG*kT*dA*dT*d[5mC]*d[5mC]*dA*dT*d[5mC]*dA*dA*d[5mC]*kT*kG*k[5mC]) [compound 801128]”, for which, under setting [6], the “% Inhibition” value was 48%.

Regarding “829904 (antisense kG*k[5mC]*kT*dG*dT*dT*dG*dA*dA*dG*dA*dT*dG*kA*k[5mC]*k[5mC]) [compound 829904]”, the “% Inhibition” value under setting [2] was 21%.

“798884 (k[5mC]*kG*kG*dT*dA*dA*dA*dG*d[5mC]*d[5mC]*d[5mC]*dG*dT*k[5mC]*k[5mC]*kA; antisense) [compound 798884]”: under setting [3], the “% Inhibition” value came to 15%.

For the substance “798787 (kG*kA*kG*dA*d[5mC]*dT*d[5mC]*dT*dA*dG*dT*dT*d[5mC]*kG*k[5mC]*kA; antisense) [compound 798787]”, the “% inhibition of SMAD7 mRNA expression” value under setting [1] is 20%.

With “772597 (k[5mC]*kA*kG*dT*dA*dT*dG*d[5mC]*d[5mC]*dA*d[5mC]*d[5mC]*dA*k[5mC]*kG*k[5mC]; antisense) [compound 772597]”, the “% Inhibition” value under setting [7] worked out at 0%.

“798666 (k[5mC]*kA*kT*dG*d[5mC]*dG*d[5mC]*d[5mC]*dA*dG*dT*d[5mC]*dT*k[5mC]*k[5mC]*k[5mC]; antisense) [compound 798666]”: the “% Inhibition” value under setting [3] worked out at 33%.

Consider “829756 (antisense k[5mC]*k[5mC]*kG*dT*d[5mC]*dG*d[5mC]*d[5mC]*d[5mC]*d[5mC]*dT*dT*d[5mC]*kT*k[5mC]*k[5mC]) [compound 829756]”, for which the “% Inhibition” value under setting [6] was determined as 42%.

“799641 (k[5mC]*kA*kT*d[5mC]*dA*dG*dA*d[5mC]*d[5mC]*dT*d[5mC]*dT*d[5mC]*k[5mC]*k[5mC]*kA; antisense) [compound 799641]”: under setting [4], the “% inhibition of SMAD7 mRNA expression” value stood at 33%.

On to “829733 (antisense kA*k[5mC]*k[5mC]*dA*dT*dG*dA*dA*dG*dA*dA*dG*dT*k[5mC]*kG*kG) [compound 829733]”, for which the “% Inhibition” value under setting [6] was found to be 54%.

With “798774 (kT*kT*kG*dA*d[5mC]*dT*dT*d[5mC]*d[5mC]*dG*dA*dG*dG*kA*kA*kT; antisense) [compound 798774]”, the “% inhibition of SMAD7 mRNA expression” value under setting [1] came out at 12%.

For “829972 (k[5mC]*kT*k[5mC]*dG*dG*d[5mC]*d[5mC]*dA*d[5mC]*dA*d[5mC]*dA*d[5mC]*k[5mC]*kT*k[5mC]; antisense) [compound 829972]”, under setting [2], the “% Inhibition” value is 22%.

On to “799869 (k[5mC]*k[5mC]*kA*dT*dA*dA*dA*d[5mC]*dA*dT*dG*dG*dG*k[5mC]*kT*k[5mC]; antisense) [compound 799869]”, for which the “% Inhibition” value under setting [3] is listed as 16%.

With “799633 (kA*kG*kA*d[5mC]*dT*dG*d[5mC]*d[5mC]*dA*dA*dA*dT*d[5mC]*kA*k[5mC]*kA; antisense) [compound 799633]”, the “% inhibition of SMAD7 mRNA expression” value under setting [4] turned out to be 25%.

In the case of “829757 (antisense k[5mC]*k[5mC]*kG*dG*d[5mC]*d[5mC]*d[5mC]*d[5mC]*dA*dT*dG*d[5mC]*dG*k[5mC]*kT*k[5mC]) [compound 829757]”, the “% Inhibition” value under setting [6] was determined as 15%.

Regarding “799996 (kG*kA*k[5mC]*d[5mC]*d[5mC]*dA*d[5mC]*dG*dG*dT*dT*dA*dA*kA*kT*kG; antisense) [compound 799996]”, the “% Inhibition” value under setting [7] stood at 36%.

Turning to “830096 (kA*kA*k[5mC]*dA*dA*d[5mC]*dA*dT*d[5mC]*d[5mC]*dT*dG*dA*kG*k[5mC]*kG; antisense) [compound 830096]”, the “% Inhibition” value under setting [3] worked out at 44%.

On to “799157 (antisense kG*kT*kT*dG*dT*dA*dG*dA*dA*dG*dA*dA*dA*kT*kG*kA) [compound 799157]”, for which the “% Inhibition” value under setting [1] came to 39%.

On to “799469 (antisense k[5mC]*kT*k[5mC]*d[5mC]*dG*d[5mC]*dA*dT*dA*dG*dA*d[5mC]*dA*kG*kA*kT) [compound 799469]”, for which, under setting [3], the “% Inhibition” value is listed as 69%.

“798814 (kA*k[5mC]*k[5mC]*dA*dG*dT*dG*dT*dG*dA*d[5mC]*d[5mC]*dG*kA*kT*k[5mC]; antisense) [compound 798814]”: the “% Inhibition” value under setting [3] turned out to be 25%.

On to “799571 (k[5mC]*kA*kG*dA*dA*dA*dA*dG*dA*dT*dG*d[5mC]*dA*kG*kT*kT; antisense) [compound 799571]”, for which the “% Inhibition” value under setting [5] is reported as 46%.

As to “830013 (antisense kG*kT*kG*d[5mC]*d[5mC]*dA*dG*dT*d[5mC]*dT*d[5mC]*dA*dA*kA*kT*kG) [compound 830013]”, the “% Inhibition” value under setting [2] turned out to be 55%.

For the substance “800999 (antisense k[5mC]*kA*kT*dT*d[5mC]*dA*dT*dT*dA*dA*dG*d[5mC]*d[5mC]*k[5mC]*kG*k[5mC]) [compound 800999]”, the “% Inhibition” value under setting [6] is 54%.

With “799841 (antisense kA*kA*kA*dG*dA*dA*dT*dG*dG*dT*dG*dG*dG*kT*kG*k[5mC]) [compound 799841]”, under setting [5], the “% Inhibition” value was 37%.

Regarding “798949 (antisense kA*kG*kA*dG*d[5mC]*dG*dA*dA*dA*d[5mC]*dA*dA*dA*kA*k[5mC]*kA) [compound 798949]”, the “% inhibition of SMAD7 mRNA expression” value under setting [1] was 55%.

Take “800101 (antisense kA*kA*k[5mC]*dA*dA*dA*dG*d[5mC]*d[5mC]*dT*d[5mC]*dT*dT*k[5mC]*kT*k[5mC]) [compound 800101]”: under setting [3], the “% Inhibition” value is recorded as 0%.

Take “830098 (kA*kG*kA*d[5mC]*dA*dA*dA*d[5mC]*d[5mC]*dT*dT*d[5mC]*d[5mC]*kG*kA*kA; antisense) [compound 830098]”: under setting [3], the “% Inhibition” value came to 37%.

For the substance “799327 (kG*k[5mC]*kA*d[5mC]*dA*d[5mC]*dT*d[5mC]*dT*d[5mC]*d[5mC]*d[5mC]*dA*kG*kG*kA; antisense) [compound 799327]”, under setting [1], the “% inhibition of SMAD7 mRNA expression” value is recorded as 52%.

In the case of “799160 (antisense kA*k[5mC]*kG*dA*dG*dT*dG*dT*dA*dT*dG*dA*dG*kT*kT*kG) [compound 799160]”, the “% Inhibition” value under setting [1] came to 61%.

“799329 (kG*kT*kA*dT*dG*d[5mC]*dA*d[5mC]*dA*d[5mC]*dT*d[5mC]*dT*k[5mC]*k[5mC]*k[5mC]; antisense) [compound 799329]”: the “% Inhibition” value under setting [3] is 0%.

Turning to “798973 (antisense kT*k[5mC]*k[5mC]*dT*dA*dT*d[5mC]*dA*dG*dG*dG*dT*dG*kT*k[5mC]*k[5mC]) [compound 798973]”, under setting [1], the “% Inhibition” value is recorded as 30%.

In the case of “829954 (kT*kT*kG*dT*d[5mC]*dA*d[5mC]*d[5mC]*d[5mC]*dG*dT*d[5mC]*dT*kG*kG*kG; antisense) [compound 829954]”, under setting [2], the “% Inhibition” value is given as 53%.

Turning to “790637 (kA*k[5mC]*k[5mC]*dT*dA*dG*dT*dT*d[5mC]*dG*d[5mC]*dA*dG*kA*kG*kT; antisense) [compound 790637]”, the “% Inhibition” value under setting [6] was 0%.

Consider “772786 (kG*kA*k[5mC]*d[5mC]*dA*d[5mC]*dA*dG*d[5mC]*dA*d[5mC]*d[5mC]*dT*kT*kG*kT; antisense) [compound 772786]”, for which the “% inhibition of SMAD7 mRNA expression” value under setting [4] is recorded as 19%.

As to “799010 (k[5mC]*kG*kT*dT*dG*dT*d[5mC]*dT*d[5mC]*d[5mC]*d[5mC]*d[5mC]*dA*kT*k[5mC]*kT; antisense) [compound 799010]”, the “% inhibition of SMAD7 mRNA expression” value under setting [1] was 57%.

For “829932 (kT*kG*kA*dT*dA*dA*d[5mC]*dA*d[5mC]*d[5mC]*d[5mC]*dA*dT*kA*kG*kA; antisense) [compound 829932]”, under setting [2], the “% Inhibition” value stood at 41%.

As to “830003 (antisense kG*kG*k[5mC]*dA*dT*dT*d[5mC]*dT*dT*dT*dT*dA*dG*k[5mC]*k[5mC]*k[5mC]) [compound 830003]”, under setting [2], the “% Inhibition” value came out at 0%.

For “799390 (antisense k[5mC]*kA*kA*dA*dA*d[5mC]*dT*dT*dT*dT*dA*dA*dT*kT*kA*kG) [compound 799390]”, the “% Inhibition” value under setting [3] came out at 0%.

“830196 (antisense kT*kT*kA*dA*dT*dG*dG*d[5mC]*d[5mC]*d[5mC]*dA*dG*d[5mC]*k[5mC]*k[5mC]*kA) [compound 830196]”: the “% Inhibition” value under setting [3] is 31%.

Regarding “772584 (kG*kA*kA*dG*dT*dT*dG*dG*dG*dA*dA*dT*d[5mC]*kT*kG*kA; antisense) [compound 772584]”, under setting [6], the “% Inhibition” value was determined as 4%.
